The subject of data set [1] is other Kv1.x channels and the KCa3.1 channel. The conditions noted are these: cited from earlier work. An excerpt:
(§1) The voltage-gated Kv1.3 potassium channel has gained interest as a therapeutic target for obesity, as mice lacking Kv1.3 or treated with a Kv1.3 blocker are protected from high-fat diet (HFD)-induced obesity. Kv1.3 is also a target for autoimmune diseases, as […] (CCR7)^- effector memory T (TEM) lymphocytes express high levels of Kv1.3 upon activation and blocking of Kv1.3 inhibits their function. […] However, S ...

In data set [2] the test system is Kv1.3. The conditions noted are these: cited from earlier work.
Text: as §1

For data set [3], the target named is T1, mKv1.3 channels (Mus musculus, UniProt P16390).
T1 construct: expressed in transfected cells
Kind of data set: whole-cell patch-clamp block of mKv1.3 by synthetic ShK-235. It is filed as cell-based. The following applies: Port-a-Patch, L929 fibroblasts stably expressing mKv1.3, 200 ms pulses −80 to 40 mV, 20–25°C, pH 7.4, N = 3 cells per concentration, mean ± SEM, read-out: IC50 for Kv1.3 block. How it is done: Mouse L929 fibroblasts stably expressing mKv1.3 channels were a kind gift from Dr. Chandy (Nanyang Technological University, Singapore). They were maintained in Dulbecco’s modified Eagle’s medium (DMEM) supplemented with 10% heat-inactivated fetal bovine serum (FBS), 4 mM L-glutamine, 1 mM sodium pyruvate, and 500 μg/mL G418 (Calbiochem/EMD Millipore, Billerica, MA) and cultured to 60~70% confluence.
Patch clamp assays were conducted at room temperature (20–25°C) in the whole-cell configuration using a Port-a-Patch system (Nanion Technologies, Livingston, NJ) connected to a HEKA EPC10-USB amplifier controlled with the PatchMaster software (HEKA, Germany). The external solution contained 1 mM MgCl2, 160 mM NaCl, 4.5 mM KCl, 2 mM CaCl2, and 10 mM Hepes; pH was adjusted to 7.4 with NaOH. […]
The stock of synthetic ShK-235, the supernatants of transfected HEK293T cells, and the rodent serum samples were diluted in the external solution immediately before use and tested in triplicates without any further processing. Peak Kv1.3 currents were recorded before addition of the samples and after reaching steady-state block and results were analyzed using IGOR Pro software (WaveMetrics, Portland, OR) and the IC50 of channel block was calculated by nonlinear regression using Prism software (GraphPad Software, San Diego, CA).

The conditions of data set [4]: cited from earlier work. An excerpt:
All constructs contain both ShK-235 and EGFP.

A word on the IC50: it is the midpoint of a concentration-inhibition curve.

T1 sequence (P16390 whole entry): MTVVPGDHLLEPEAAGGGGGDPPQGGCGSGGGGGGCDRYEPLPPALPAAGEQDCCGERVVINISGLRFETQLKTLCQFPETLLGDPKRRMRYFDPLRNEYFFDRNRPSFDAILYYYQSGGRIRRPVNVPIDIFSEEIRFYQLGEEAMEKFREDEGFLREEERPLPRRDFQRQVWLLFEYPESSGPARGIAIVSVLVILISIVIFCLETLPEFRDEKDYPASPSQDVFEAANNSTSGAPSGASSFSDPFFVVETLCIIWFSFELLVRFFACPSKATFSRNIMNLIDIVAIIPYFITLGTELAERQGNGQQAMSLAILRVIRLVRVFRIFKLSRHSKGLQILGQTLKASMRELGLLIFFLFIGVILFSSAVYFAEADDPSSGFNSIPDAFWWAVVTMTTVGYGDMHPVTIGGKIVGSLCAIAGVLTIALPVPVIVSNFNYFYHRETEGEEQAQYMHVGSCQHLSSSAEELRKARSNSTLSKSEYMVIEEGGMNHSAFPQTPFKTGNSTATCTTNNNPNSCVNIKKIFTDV

Take “ShK: small peptide produced by the sea anemone Stichodactyla helianthus, one of the most potent blockers of Kv1.3 (RSCIDTIPKSRCTAFKCKHSIKYRLSFCRKTCGTCA)”: in data set [1], the “block of other Kv1.x channels and KCa3.1” value was “in the pM to low nM range”. In data set [2], the half-maximal inhibitory concentration (IC50) was 0.01 nM.

With `CC[C@H](C)[C@@H]1NC(=O)[C@H](CO)NC(=O)[C@H](Cc2c[nH]cn2)NC(=O)[C@H](CCCCN)NC(=O)[C@@H]2CSSC[C@@H]3NC(=O)[C@H]([C@@H](C)O)NC(=O)[C@H](CCCCN)NC(=O)[C@H](CCCNC(=N)N)NC(=O)[C@H](CSSC[C@H](NC(=O)[C@H](CCCNC(=N)N)NC(=O)[C@H](CO)NC(=O)[C@H](CCCCN)NC(=O)[C@@H]4CCCN4C(=O)[C@H]([C@@H](C)CC)NC(=O)[C@H]([C@@H](C)O)NC(=O)[C@H](CC(=O)O)NC(=O)[C@H]([C@@H](C)CC)NC(=O)[C@@H](NC(=O)[C@H](CO)NC(=O)[C@@H](N)CCCNC(=N)N)CSSC[C@@H](C(=O)N[C@@H](C)C(=O)O)NC(=O)[C@H]([C@@H](C)O)NC(=O)CNC3=O)C(=O)N[C@@H]([C@@H](C)O)C(=O)N[C@@H](C)C(=O)N[C@@H](Cc3ccccc3)C(=O)N[C@@H](CCCCN)C(=O)N2)NC(=O)[C@H](Cc2ccccc2)NC(=O)[C@H](CO)NC(=O)[C@H](CC(C)C)NC(=O)[C@H](CCCNC(=N)N)NC(=O)[C@H](Cc2ccc(O)cc2)NC(=O)[C@H](CCCCN)NC1=O` [ShK-235], in data set [3], the concentration for half-maximal inhibition (IC50) came to 0.0709 ± 0.0219 nM. Besides, in data set [4], the immunogenicity result is given as “not immunogenic”.

Source of the values: PMC10089316, “Adeno-Associated virus 8 delivers an immunomodulatory peptide to mouse liver more efficiently than to rat liver” (PLOS ONE, 2023).
